For this test, the system named is CRLF2r B-ALL xenograft. As to the kind of experiment: In vivo efficacy in CRLF2r B-ALL xenograft (PDX) in NSG mice. Further details: species or system mouse. The note with it: compound 7 30 mg/kg i.p. daily.

Structures are written as SMILES. Entries after “also recorded” stand apart in the source; their conditions may differ.

Regarding `CCCn1cc(-c2nc(Nc3ccc(C(=O)NCCCCNc4cccc5c4C(=O)N(C4CCC(=O)NC4=O)C5=O)cc3)nc3[nH]ccc23)cn1` (centres unmarked) [Compound 7], the “spleen size and tumor burden in PDX model” value is “reduced spleen size and tumor burden”. Besides, the “leukemia burden / leukemic cell proliferation in CRLF2r B-ALL xenograft” value (ruxolitinib 50 mg/kg oral gavage twice daily, 28-day dosing period) was “marked reduction in leukemia burden; also recorded: slowed leukemia growth”.

Values taken from patent US12624038B2, “Molecules and methods related to treatment of uncontrolled cellular proliferation” (ST. JUDE CHILDREN'S RESEARCH HOSPITAL, priority 2019, dated 2026).
